Source: patent US8778966B2, “Quinolinone derivatives as PARP and tank inhibitors” (Janssen Pharmaceutica, NV, priority 2007, dated 2014)

Key:
TANK-2 enzyme = biological target: T1, TANK-2 enzyme (Homo sapiens, UniProt Q9H2K2); experiment: In vitro Scintillation Proximity Assay (SPA) for TANK-2 inhibitory activity; assay type: biochemical; details: read-out: in vitro SPA assay TANK-2 pIC50 (converted)
T1 construct: made in house
T1 sequence (Q9H2K2 1-1166): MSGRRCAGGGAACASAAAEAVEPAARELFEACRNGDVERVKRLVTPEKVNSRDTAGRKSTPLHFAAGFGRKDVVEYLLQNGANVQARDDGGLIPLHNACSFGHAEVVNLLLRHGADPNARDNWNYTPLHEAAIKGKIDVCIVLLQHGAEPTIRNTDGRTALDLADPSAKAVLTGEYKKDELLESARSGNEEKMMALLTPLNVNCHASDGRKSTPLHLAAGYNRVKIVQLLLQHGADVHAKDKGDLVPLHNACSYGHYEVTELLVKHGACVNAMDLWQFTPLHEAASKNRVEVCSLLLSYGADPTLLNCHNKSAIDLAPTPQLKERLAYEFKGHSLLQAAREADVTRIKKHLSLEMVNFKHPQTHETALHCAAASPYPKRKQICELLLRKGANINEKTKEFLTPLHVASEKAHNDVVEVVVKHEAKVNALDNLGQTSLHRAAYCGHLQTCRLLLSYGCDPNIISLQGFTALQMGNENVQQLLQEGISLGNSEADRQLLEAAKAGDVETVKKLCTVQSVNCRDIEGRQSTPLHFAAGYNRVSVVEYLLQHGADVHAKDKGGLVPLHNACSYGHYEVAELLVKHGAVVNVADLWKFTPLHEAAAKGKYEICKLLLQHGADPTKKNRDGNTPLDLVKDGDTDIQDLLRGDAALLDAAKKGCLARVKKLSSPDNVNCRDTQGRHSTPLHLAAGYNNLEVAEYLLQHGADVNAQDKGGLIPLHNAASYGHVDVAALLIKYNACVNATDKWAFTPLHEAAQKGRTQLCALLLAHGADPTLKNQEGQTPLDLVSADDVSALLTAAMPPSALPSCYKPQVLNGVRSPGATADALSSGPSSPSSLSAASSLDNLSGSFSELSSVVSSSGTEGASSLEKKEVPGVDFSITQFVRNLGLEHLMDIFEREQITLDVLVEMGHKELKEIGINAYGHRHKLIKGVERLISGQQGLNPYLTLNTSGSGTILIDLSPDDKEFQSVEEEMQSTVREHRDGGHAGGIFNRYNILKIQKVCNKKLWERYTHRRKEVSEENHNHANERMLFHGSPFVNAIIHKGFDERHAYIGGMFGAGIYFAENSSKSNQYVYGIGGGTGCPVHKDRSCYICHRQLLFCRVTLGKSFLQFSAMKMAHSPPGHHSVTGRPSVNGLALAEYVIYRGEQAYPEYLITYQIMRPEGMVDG
Summary of the method: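 TANK-2 (8 μg/ml final) auto-poly(ADP-ribosyl)ation with [3H]-NAD+/NAD donor was run in Ni flash plates in Tris/HCl pH 7.4 buffer with DTT and MgCl2, 120 min at room temperature, then stopped with excess NAD and scintillation-counted. Blank-corrected cpm was expressed as % of enzyme control, and IC50 was linearly interpolated and reported as pIC50.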

tubulin = experiment: Tubulin polymerization assay; assay type: biochemical; set-up: key: a compound showing 0 to 50% inhibition at 20 μM is reported as score 1; Score 2 compounds are defined as compound showing more than 50% inhibition at 20 μM and less than 50% inhibition at 5 μM; a compound showing more than 50% inhibition at 5 μM is reported as score 3; details: tested at 20 μM and 5 μM
Summary of the method: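 Cytoskeleton kit tubulin was run in a 10 µl final volume at 37 °C, with fluorescence read every minute for 1 h. Polymerization was taken as the maximum slope (4-point linear regression) and expressed as % of no-compound control. Compounds were tested at 20 µM, then at 5 µM if inhibition exceeded 50%, and scored by % inhibition.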

Structure (SMILES)	IC50 (TANK-2 enzyme) [nM]	tubulin polymerisation score (tubulin)
CCc1cc2ccc([C@@](C)(C#N)Cc3cccc(N(C)C)c3)cc2[nH]c1=O (single isomer, unassigned) [Compound 258]	501	
CCc1cc2ccc([C@](C)(C#N)Cc3cccc(N(C)C)c3)cc2[nH]c1=O (single isomer, unassigned) [Compound 259]	200	
CCC[C@@](C#N)(Cc1ccccc1)c1ccc2cc(CC)c(=O)[nH]c2c1 (single isomer, unassigned) [Compound 263]	2000	
CCC[C@](C#N)(Cc1ccccc1)c1ccc2cc(CC)c(=O)[nH]c2c1 (single isomer, unassigned) [Compound 264]	2510	
CCc1cc2ccc([C@@](C)(C#N)Cc3cccc(C#N)c3)cc2[nH]c1=O (single isomer, unassigned) [Compound 268]	79.4	1 (a compound showing 0 to 50% inhibition at 20 μM is reported as score 1)
CCc1cc2ccc([C@](C)(C#N)Cc3cccc(C#N)c3)cc2[nH]c1=O (single isomer, unassigned) [Compound 269]	158	2
CCc1cc2ccc([C@](C)(C#N)C[C@@H]3Cc4cc(C)ccc4O3)cc2[nH]c1=O (single isomer, unassigned) [Compound 400]	501	
CCc1cc2ccc(C(C)(C#N)Cc3cccc(OC[C@@H](O)CO)c3)cc2[nH]c1=O (some centres unmarked) [Compound 56]	1580	
CCc1cc2ccc(C(C)(C#N)Cc3cccc(CNS(C)(=O)=O)c3)cc2[nH]c1=O (centres unmarked) [Compound 170]	794	
CCc1cc2ccc([C@](C)(C#N)[C@H](C)c3ccccc3)cc2[nH]c1=O [Compound 200]	1260	
CCc1cc2ccc(C(C)(C#N)Cc3cccc(C#C[Si](C)(C)C)n3)cc2[nH]c1=O (centres unmarked) [Compound 210]	3980	
CCc1cc2ccc(C(C)(C#N)Cc3cccc(OCCOC)n3)cc2[nH]c1=O (centres unmarked) [Compound 219]	398	
CCc1cc2ccc(C(C)(C#N)Cc3cccc(OCCO)c3)cc2[nH]c1=O (centres unmarked) [Compound 262]	631	2
CCc1cc2ccc(C(C)(C#N)CCOc3cccc(C(F)(F)F)c3)cc2[nH]c1=O (centres unmarked) [Compound 274]	2510	
CCc1cc2ccc(C(C)(C#N)Cc3cccc(CN)c3)cc2[nH]c1=O (centres unmarked) [Compound 290]	316	1 (a compound showing 0 to 50% inhibition at 20 μM is reported as score 1)
CCc1cc2ccc(C(C)(C#N)Cc3cccc(/C=C/S(C)(=O)=O)c3)cc2[nH]c1=O (centres unmarked) [Compound 292]	126	
CCc1c(Cl)c2ccc(C(C)(C#N)Cc3cccc(C#N)c3)cc2[nH]c1=O (centres unmarked) [Compound 293]	1000	
CCc1cc2cc(OC)c(C(C)(C#N)Cc3ccccc3)cc2[nH]c1=O (centres unmarked) [Compound 294]	158	
CCc1cc2ccc(C(C)(C#N)Cc3cccc(C#CCOC)c3)cc2[nH]c1=O (centres unmarked) [Compound 297]	1580	
CCc1cc2ccc(C(C)(C#N)Cc3cccc(C#CCN(C)C)c3)cc2[nH]c1=O (centres unmarked) [Compound 298]	1580	
CCc1cc2ccc(C(C)(C#N)CNCc3cccc(C#N)c3)cc2[nH]c1=O (centres unmarked) [Compound 301]	79.4	
CCc1cc2ccc(C(C)(C#N)Cc3cnc(Cl)nc3Cl)cc2[nH]c1=O (centres unmarked) [Compound 306]	126	
COc1cc(OC)nc(CC(C)(C#N)c2ccc3cc(C)c(=O)[nH]c3c2)n1 (centres unmarked) [Compound 308]	3160	2
CCOc1cc(OCC)nc(CC(C)(C#N)c2ccc3cc(CC)c(=O)[nH]c3c2)n1 (centres unmarked) [Compound 309]	2000	
CCc1cc2ccc(C(C)(C#N)Cc3cccc(Cl)n3)cc2[nH]c1=O (centres unmarked) [Compound 310]	251	
CCc1cc2ccc(C(C)(C#N)Cc3ncc(C)c(OC)c3C)cc2[nH]c1=O (centres unmarked) [Compound 311]	1260	

Structure (SMILES)	IC50 (TANK-2 enzyme) [nM]	tubulin polymerisation score (tubulin)
CCc1cc2ccc(C(C)(C#N)Cc3ccc(C)nc3)cc2[nH]c1=O (centres unmarked) [Compound 327]	631	1 (a compound showing 0 to 50% inhibition at 20 μM is reported as score 1)
CCc1cc2ccc(C(C)(C#N)Cc3cccc(C#N)n3)cc2[nH]c1=O (centres unmarked) [Compound 329]	316	3 (a compound showing more than 50% inhibition at 5 μM is reported as score 3)
CCCn1ccnc1CC(C)(C#N)c1ccc2cc(CC)c(=O)[nH]c2c1 (centres unmarked) [Compound 335]	501	
CCc1cc2ccc(C(C)(C#N)Cc3ccc4ccccc4n3)cc2[nH]c1=O (centres unmarked) [Compound 336]	100	
CCc1cc2ccc(C(C)(C#N)Cc3nccn3CC)cc2[nH]c1=O (centres unmarked) [Compound 337]	631	
CCc1cc2ccc(C(C)(C#N)Cc3nc4ccccc4n3C)cc2[nH]c1=O (centres unmarked) [Compound 338]	501	2
CCc1cc2ccc(C(C)(C#N)Cc3cccc(C)n3)cc2[nH]c1=O (centres unmarked) [Compound 343]	398	
CCc1cc2ccc(C(C)(C#N)Cc3cccc(Br)n3)cc2[nH]c1=O (centres unmarked) [Compound 344]	316	
CCc1cc2ccc(C(C)(C#N)Cc3cccc(CO)n3)cc2[nH]c1=O (centres unmarked) [Compound 345]	501	2
CCc1cc2ccc(C(C)(C#N)Cc3ccc(OC)nc3)cc2[nH]c1=O (centres unmarked) [Compound 352]	631	
CCc1cc2ccc(C(C)(C#N)Cc3cccc(OC)n3)cc2[nH]c1=O (centres unmarked) [Compound 353]	200	2
CCc1cc2ccc(C(C)(C#N)Cc3cnc(OC)nc3Cl)cc2[nH]c1=O (centres unmarked) [Compound 356]	79.4	
CCc1cc2ccc(C(C)(C#N)Cc3cnc(OC)nc3OC)cc2[nH]c1=O (centres unmarked) [Compound 357]	79.4	
CCc1cc2ccc(C(C)(C#N)Cc3cc(OC)nc(OC)n3)cc2[nH]c1=O (centres unmarked) [Compound 358]	100	2
CCc1cc2ccc(C(C)(C#N)Cc3nc(Cl)cc(N(C)C)n3)cc2[nH]c1=O (centres unmarked) [Compound 359]	100	2
CCc1cc2ccc(C(C)(C#N)Cc3nccc(OC)n3)cc2[nH]c1=O (centres unmarked) [Compound 360]	126	2
CCc1cc2ccc(C(C)(C#N)Cc3cc(OCCOC)nc(C)n3)cc2[nH]c1=O (centres unmarked) [Compound 363]	158	
CCc1cc2ccc(C(C)(C#N)Cc3cc(N(C)C)nc(Cl)n3)cc2[nH]c1=O (centres unmarked) [Compound 364]	100	
CCc1cc2ccc(C(C)(C#N)Cc3cc(OC)nc(C)n3)cc2[nH]c1=O (centres unmarked) [Compound 366]	158	
CCc1cc2ccc(C(C)(C#N)Cc3cc(OCCOC)nc(Cl)n3)cc2[nH]c1=O (centres unmarked) [Compound 367]	158	
CCc1cc2ccc(C(C)(C#N)Cc3nc(C)cc(C)n3)cc2[nH]c1=O (centres unmarked) [Compound 368]	158	
CCc1cc2ccc(C(C)(C#N)Cc3nccc(OCCOC)n3)cc2[nH]c1=O (centres unmarked) [Compound 369]	631	
CCc1cc2ccc(C(C)(C#N)Cc3nc(Cl)cc(OCCOC)n3)cc2[nH]c1=O (centres unmarked) [Compound 370]	251	
CCc1cc2ccc(C(C)(C#N)Cc3cc(Cl)nc(Cl)c3)cc2[nH]c1=O (centres unmarked) [Compound 372]	126	
CCc1cc2ccc(C(C)(C#N)Cc3cc(OC)ccn3)cc2[nH]c1=O (centres unmarked) [Compound 373]	501	
CCc1cc2ccc(C(C)(C#N)CC3CCc4ccccc4O3)cc2[nH]c1=O (centres unmarked) [Compound 399]	100	
